Biological target: T1, human GPR119 (Homo sapiens, UniProt Q8TDV5)
T1 construct: expressed in transfected cells
T1 sequence (Q8TDV5 1-335): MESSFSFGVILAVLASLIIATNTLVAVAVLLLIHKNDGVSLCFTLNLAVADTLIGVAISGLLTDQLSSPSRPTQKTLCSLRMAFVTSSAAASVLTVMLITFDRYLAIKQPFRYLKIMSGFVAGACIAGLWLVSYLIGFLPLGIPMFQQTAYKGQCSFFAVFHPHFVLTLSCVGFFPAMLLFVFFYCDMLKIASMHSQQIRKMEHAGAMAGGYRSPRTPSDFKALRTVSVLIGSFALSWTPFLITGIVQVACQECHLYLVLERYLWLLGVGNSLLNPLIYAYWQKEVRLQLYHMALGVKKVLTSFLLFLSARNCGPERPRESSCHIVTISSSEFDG
Experiment: Human GPR119 agonist activity with increase of intracellular cAMP concentration as index (CRE-luciferase reporter assay in hGPR119/CRE-luc/CHO(dhfr-) cells)
Format: cell-based
Conditions: 1 μM test compound, 2 hr incubation; luciferase activity with 10 μM N-[4-(methylsulfonyl)phenyl]-5-nitro-6-{4-[4-(trifluoromethoxy)phenoxy]piperidin-1-yl}pyrimidin-4-amine = 100%, DMSO = 0%
Experimental: Evaluation of Human GPR119 Agonist Activity with Increase of Intracellular Camp Concentration as Index
(1) Construction of Expression Plasmid of Human GPR119 Gene
Using High Fidelity RNA PCR Kit (Takara Bio Inc.), human GPR119 gene was cloned by PCR using cDNA library synthesized from human brain mRNA (Clontech) as a template and synthetic DNA having the following sequence. Primer 1 and Primer 2 were is prepared by adding cleavage sites for Sal I and Nhe I based on the base sequence information of human GPR119 gene.
PCR was performed using Pyrobest DNA polymerase (Takara Bio Inc.). The obtained PCR product was cloned to pUC118 (Takara Bio Inc.), and the base sequence was […] and digested with restriction enzymes Sal I, Nhe I. The obtained DNA fragment was inserted into an animal cell expression vector pAKKO-111H (plasmid same as pAKKO-1.111H described in Biochem. Biophys. Acta, Hinuma, S. et al., 1219, 251-259 (1994)) similarly digested with Sal I, Nhe I, whereby an expression plasmid pAKKO-111H/hGPR119 was prepared.
(2) Construction of Reporter Plasmid
Zeocin resistance gene was cloned by PCR using plasmid pcDNA3.1/Zeo (Invitrogen) as a template, synthetic DNA having the following sequences wherein cleavage sites for restriction enzymes Sal I and BamH I are added to before and after a region containing SV40 Ori and a region containing SV40pA, which are located at the upstream and downstream of Zeocin resistance gene of this plasmid, as a primer set, and KOD polymerase (TOYOBO).
The obtained PCR product was inserted into pCR-BluntII (Invitrogen). A fragment containing a Zeocine resistance gene obtained by digesting the plasmid with restriction enzymes Sal I and BamH I was inserted into plasmid pGL3(R2.2)-Basic Vector (promega) similarly digested with Sal I and Bam HI to give Zeocin resistance plasmid pGL3(R2.2)/Zeocin-Basic Vector.
A reporter plasmid containing 4 cAMP responsive elements (CRE) connected in tandem was prepared using the following 5′-terminal phosphorylated synthetic DNA.
First, a DNA fragment containing a CRE sequence obtained by annealing CRE-Upper and CRE-Lower and elongating with KOD polymerase was inserted into pCR-BluntII to give pCR-BluntII-CRE. A fragment cleaved from pCR-BluntII-CRE with restriction enzymes Kpn I and Hind III was inserted into pGL3(R2.2)/Zeocin-Basic Vector similarly digested with Kpn I and Hind III to give reporter plasmid pGL3(R2.2)/Zeocin-CRE-luc.
(3) Introduction of Human GPR119 Gene and Reporter Gene into CHO(dhfr-) Cells and Acquirement of Expressing Cell
CHO(dhfr-) cells in MEMα (minimum essential medium alpha) (Nikken bio medical laboratory) medium containing 10% fetal bovine serum, 100 U/mL penicillin and 100 μg/mL streptomycin (Invitrogen) were detached by a treatment with trypsin-EDTA (ethylenediaminetetraacetic acid) (Invitrogen), the cells were washed with PBS (Phosphate-buffered saline), centrifuged (1000 rpm, 5 min) and suspended in PBS at a cell density of 1×10^7 cells/mL. Then, DNA was introduced into the cell by a gene pulser (Bio-Rad) under the following conditions. That is, 1×10^7 cells, plasmid pGL3(R2.2)/Zeocin-CRE-luc (15 μg), which was obtained in (2) and linearized with BssH II, and pAKKO-111H (5 μg) were added in a 0.4 cm gap cuvette, and the mixture was electroporated at voltage […], capacitance 950 μF. The cells were placed in the above-mentioned medium, cultured for 24 hr, and the cells were detached and centrifuged. The cells were diluted to 250 cells/well, plated in a 96 well plate (Corning) and cultivated in a CO2 incubator at 37° C. to give a transformant. Then, forskolin was added to the obtained transformant and a strain (CRE-luc/CHO(dhfr-) cell) that induces luciferase expression was selected. […]

| SMILES | GPR119 agonist activity (%) at 1 μM concentration [%] |
| --- | --- |
| COCC(=O)Nc1ccc2c(c1)CCN2c1cc(OC2CCN(C(=O)OC(C)C)CC2)ncn1 [Example 59, isopropyl 4-[(6-{5-[(methoxyacetyl)amino]-2,3-dihydro-1H-indol-1-yl}pyrimidin-4-yl)oxy]piperidine-1-carboxylate] | 77 |
| CCc1cnc(N2CCC(Oc3cc(N4CCc5cc(C(=O)N6CCOCC6)ccc54)ncn3)CC2)nc1 [Example 27, [1-(6-{[1-(5-ethylpyrimidin-2-yl)piperidin-4-yl]oxy}pyrimidin-4-yl)-2,3-dihydro-1H-indol-5-yl](morpholin-4-yl)methanone] | 77 |
| CC(C)(C)SC(=O)N1CCC(Oc2cc(N3CCc4cc(S(C)(=O)=O)ccc43)ncn2)CC1 [Example 36, S-tert-butyl 4-({6-[5-(methylsulfonyl)-2,3-dihydro-1H-indol-1-yl]pyrimidin-4-yl}oxy)piperidine-1-carbothioate] | 87 |
| CC(C)OC(=O)N1CCC(n2ccc3c(N4CCc5cc([N+](=O)[O-])ccc54)ncnc32)CC1 [Example 7, 1-methylethyl 4-[4-(5-nitro-2,3-dihydro-1H-indol-1-yl)-7H-pyrrolo[2,3-d]pyrimidin-7-yl]piperidine-1-carboxylate] | 96 |
| CC(C)(C)OC(=O)N1CCC(n2ccc3c(N4CCc5cc(S(C)(=O)=O)ccc54)ncnc32)CC1 [Example 1, tert-butyl 4-{4-[5-(methylsulfonyl)-2,3-dihydro-1H-indol-1-yl]-7H-pyrrolo[2,3-d]pyrimidin-7-yl}piperidine-1-carboxylate] | 62 |
| CC(C)SC(=O)N1CCC(Oc2cc(N3CCc4cc(NC(=O)CO)ccc43)ncn2)CC1 [Example 54, S-(1-methylethyl) 4-[(6-{5-[(hydroxyacetyl)amino]-2,3-dihydro-1H-indol-1-yl}pyrimidin-4-yl)oxy]piperidine-1-carbothioate] | 82 |
| CCc1cnc(N2CCC(N(c3cc(N4CCc5cc(S(C)(=O)=O)ccc54)ncn3)C(F)(F)F)CC2)nc1 [Example 69, N-[1-(5-ethylpyrimidin-2-yl)piperidin-4-yl]-6-[5-(methylsulfonyl)-2,3-dihydro-1H-indol-1-yl]-N-(trifluoromethyl)pyrimidin-4-amine] | 98 |
| CC(C)OC(=O)N1CCC(Oc2cc(N3CCc4cc(S(C)(=O)=O)ccc43)ncn2)CC1 [Example 18, 1-methylethyl 4-({6-[5-(methylsulfonyl)-2,3-dihydro-1H-indol-1-yl]pyrimidin-4-yl}oxy)piperidine-1-carboxylate] | 74 |
| CC(C)c1noc(N2CCC(Oc3cc(N4CCc5cc(C(=O)N(C)CCO)ccc54)ncn3)CC2)n1 [Example 30, N-(2-hydroxyethyl)-N-methyl-1-[6-({1-[3-(1-methylethyl)-1,2,4-oxadiazol-5-yl]piperidin-4-yl}oxy)pyrimidin-4-yl]-2,3-dihydro-1H-indole-5-carboxamide] | 78 |

Now from value to molecule:

| GPR119 agonist activity (%) at 1 μM concentration [%] | SMILES |
| --- | --- |
| 84 | CC(C)(C)OC(=O)N1CCC(Cn2ccc3c(N4CCc5cc(S(C)(=O)=O)ccc54)ncnc32)C1 (stereo in doubt) [Example 12, tert-butyl (3S)-3-({4-[5-(methylsulfonyl)-2,3-dihydro-1H-indol-1-yl]-7H-pyrrolo[2,3-d]pyrimidin-7-yl}methyl)pyrrolidine-1-carboxylate] |
| 80 | CCc1cnc(N2CCC(Oc3cc(N4CCc5cc(C(=O)N(C)CCO)ccc54)ncn3)CC2)nc1 [Example 21, 1-(6-{[1-(5-ethylpyrimidin-2-yl)piperidin-4-yl]oxy}pyrimidin-4-yl)-N-(2-hydroxyethyl)-N-methyl-2,3-dihydro-1H-indole-5-carboxamide] |
| 75 | CCc1cnc(N2CCC(Oc3cc(N4CCc5cc(NC(=O)CO)ccc54)ncn3)CC2)nc1 [Example 56, N-[1-(6-{[1-(5-ethylpyrimidin-2-yl)piperidin-4-yl]oxy}pyrimidin-4-yl)-2,3-dihydro-1H-indol-5-yl]-2-hydroxyacetamide] |
| 80 | CC(C)c1noc(N2CCC(Oc3cc(N4CCc5cc(N6CCCC6=O)ccc54)ncn3)CC2)n1 [Example 46, 1-{1-[6-({1-[3-(1-methylethyl)-1,2,4-oxadiazol-5-yl]piperidin-4-yl}oxy)pyrimidin-4-yl]-2,3-dihydro-1H-indol-5-yl}pyrrolidin-2-one] |
| 82 | CC(C)SC(=O)N1CCC(N(c2cc(N3CCc4cc(S(C)(=O)=O)ccc43)ncn2)C(F)(F)F)CC1 [Example 71, S-(1-methylethyl) 4-[{6-[5-(methylsulfonyl)-2,3-dihydro-1H-indol-1-yl]pyrimidin-4-yl}(trifluoromethyl)amino]piperidine-1-carbothioate] |
| 81 | COCC(=O)Nc1ccc2c(c1)CCN2c1cc(OC2CCN(C(=O)SC(C)C)CC2)ncn1 [Example 60, S-(1-methylethyl) 4-[(6-{5-[(methoxyacetyl)amino]-2,3-dihydro-1H-indol-1-yl}pyrimidin-4-yl)oxy]piperidine-1-carbothioate] |
| 75 | CC(C)SC(=O)N1CCC(Oc2cc(N3CCc4cc(N5CCCC5=O)ccc43)ncn2)CC1 [Example 45, S-(1-methylethyl) 4-({6-[5-(2-oxopyrrolidin-1-yl)-2,3-dihydro-1H-indol-1-yl]pyrimidin-4-yl}oxy)piperidine-1-carbothioate] |
| 88 | Cc1cnc(N2CCC(N(c3cc(N4CCc5cc(S(C)(=O)=O)ccc54)ncn3)C(F)(F)F)CC2)nc1 [Example 73, N-[1-(5-methylpyrimidin-2-yl)piperidin-4-yl]-6-[5-(methylsulfonyl)-2,3-dihydro-1H-indol-1-yl]-N-(trifluoromethyl)pyrimidin-4-amine] |
| 92 | CC(C)c1noc(N2CCC(N(c3cc(N4CCc5cc(S(C)(=O)=O)ccc54)ncn3)C(F)(F)F)CC2)n1 [Example 32, N-{1-[3-(1-methylethyl)-1,2,4-oxadiazol-5-yl]piperidin-4-yl}-6-[5-(methylsulfonyl)-2,3-dihydro-1H-indol-1-yl]-N-(trifluoromethyl)pyrimidin-4-amine] |
| 80 | COCCN(C)C(=O)c1ccc2c(c1)CCN2c1cc(OC2CCN(c3nc(C(C)C)no3)CC2)ncn1 [Example 31, N-(2-methoxyethyl)-N-methyl-1-[6-({1-[3-(1-methylethyl)-1,2,4-oxadiazol-5-yl]piperidin-4-yl}oxy)pyrimidin-4-yl]-2,3-dihydro-1H-indole-5-carboxamide] |
| 85 | CSC(=O)N1CCC(Oc2cc(N3CCc4cc(S(C)(=O)=O)ccc43)ncn2)CC1 [Example 61, S-methyl 4-({6-[5-(methylsulfonyl)-2,3-dihydro-1H-indol-1-yl]pyrimidin-4-yl}oxy)piperidine-1-carbothioate] |
